Results published in patent EP3917907B1, “MODULATORS OF POTASSIUM ION CHANNELS AND USES THEREOF” (Universitá Degli Studi Di Salerno, priority 2019, dated 2020).

How the values were obtained:
Kv7.2 = target: T1, Kv7.2 (Homo sapiens, UniProt O43526); assay: Whole-cell patch-clamp on CHO cells transiently expressing Kv7.2; type: cell-based; details: CHO cells, mean±SEM, >1 activating, <1 inhibiting; for Idrug/Ictl at 0 mV: ratio of ramp-evoked Kv7.2 current amplitude in presence and absence of drug at 0 mV; for Idrug/Ictl at -40 mV: ratio of ramp-evoked Kv7.2 current amplitude in presence and absence of drug at -40 mV
T1 construct: expressed in transfected cells; host or cells: CHO cells (ATCC CRL-9618), transient transfection, pcDNA3.1(+)
Method: According to the experimental protocol, these plasmids were expressed individually or in combination (in particular of Kv7.2 and Kv7.3), together with a plasmid-expressing enhanced green fluorescent protein (Clontech, Palo Alto, CA) used as a transfection marker. Total cDNA in the transfection mixture was kept at 4 µg. CHO cells were grown in 100-mm plastic Petri dishes in Dulbecco's modified Eagle's medium containing 10% fetal bovine serum, nonessential amino acids (0.1 mM), penicillin (50 U/ml), and streptomycin ([…]) in a humidified atmosphere at 37°C with 5% CO2. The cells were plated on glass coverslips coated with poly-L-lysine, and transfected one day after plating with the appropriate cDNA using Lipofectamine 2000 (Life Technologies), according to the manufacturer's protocol.
Currents from CHO cells were recorded at room temperature (20-22°C) 24 hours after trasfection using the whole-cell configuration of the patch-clamp technique, with glass micropipettes of 3-5 MΩ resistance. During the recording, constant perfusion of extracellular solution was maintained. The extracellular solution contained (in mM): 138 NaCl, 2 CaCl2, 5.4 KCl, 1 MgCl2, 10 glucose, and 10 HEPES, at pH 7.4, adjusted with NaOH. The pipette (intracellular) solution contained (in mM): 140 KCl, 2 MgCl2, 10 EGTA, 10 HEPES, 5 Mg^2+-ATP, at pH 7.3-7.4, adjusted with KOH. Currents were recorded using an Axopatch-200A amplifier, filtered at 5 kHz, and digitized using a DigiData 1440A (Molecular Devices). The pCLAMP software (version 10.2, Molecular Devices) was used for data acquisition and analysis. To evaluate the activity of exemplary compounds on Kv7.2 (see Table 1), as well as on Kv7.1, Kv7.2/7.3, Kv7.3 and Kv7.4 channels for selected compounds (see Table 2), the cells were clamped at -80 mV and currents were elicited by 3-s voltage ramps from -80 mV to +20 mV in the presence and absence of each compound. […] The effects of drugs were expressed as shift in the ramp-voltage (ΔV) calculated at 20% of the maximal current (Miceli et al, Proc Natl Acad Sci U S A. 2013, 110(11):4386-91). Curves were fitted using the following equation: y=max/(1+x/EC50)n, where x is the drug concentration, n is the Hill coefficient and max is the maximal value achieved, as previously described (Ambrosino et al, Br J Pharmacol. 2013, 168(6):1430-1444). Data analysis and fit were performed using Sigmaplot (version 12.3).
Ramp-evoked Kv7.2 currents were analyzed by measuring the currents at -40 mV (a membrane potential value close to the activation threshold) and at 0 mV (a membrane potential value at which Kv7.2 conductance is largely saturated). In particular, -40 mV represents the threshold potential for spike initiation and 0 mV represents instead the membrane potential value at which maximal conductance of the channel is achieved.
In Table 1, the effect of exemplary compounds of the invention is expressed as the ratio between current amplitude in the presence (Idrug) and absence (Ictl) of the drug at these two membrane voltages. […]

[1] = Photostability (HPLC, solar simulator irradiation); type: physicochemical; details: percentage of degradation after 6 h irradiation with solar simulator; 100 ppm in extracellular solution pH 7.4
Method: (§1) In order to study the solution stability and photostability of the potassium channel modulators object of the present invention, a stock solution of the proper analyte (1 mg/mL) in dimethylsulfoxide (DMSO) has been prepared. This solution has been then diluted to a concentration of 100 ppm using extracellular solution containing (in mM): 138 NaCl, 2 CaCl2, 5.4 KCl, 1 MgCl2, 10 glucose, and 10 HEPES, at pH 7.4, adjusted with NaOH. To measure solution stability, the diluted solutions have been maintained at ambient temperature for 6 h. To measure photostability, the diluted solutions have been irradiated for 6 h using a Oriel Sol3A Solar Simulator (Newport corporation, Irvine, CA, USA) with a 12x12 inches output beam. Aliquots of solution have been withdrawn after 6h and analyzed by HPLC using a Kinetex C18, 150 mm × 4.6 mm × 2.6 µm (Phenomenex, Bologna, Italy) as stationary phase and a mobile phase constituted by A: H2O/CH3CN (80:20) and B: CH3CN. Gradient elution has been performed from 20% to 90% of B in 7.50 minutes and from 90% to 20% of B in 1 minute. The pump flux has been set to 1.5 mL/min. Column has been thermostatted at 40°C during analysis. Results are espressed in Table 3 as percentage of degradation of the product calculated as ratio between the peak area of the analyte at time 0 (Pa0) and after 6h (Pa6) using the following formula: % degradation = (Pa0−Pa6)/Pa0 *100. [formula]

[2] = Solution stability (HPLC, extracellular solution, ambient temperature); type: physicochemical; details: percentage of degradation after 6 h at ambient temperature; 100 ppm in extracellular solution pH 7.4
Method: as §1

Q: For `O=C(Nc1ccc2c(c1)CCN2Cc1ccc(F)cc1)NC1CCCCC1` [1-cyclohexyl-3-(1-(4-fluorobenzyl)indolin-5-yl)urea], which “Idrug/Ictl at 0 mV” value (Kv7.2) is on record?
A: Its value is 0.85±0.12.

Q: What about the “Idrug/Ictl at -40 mV” value (Kv7.2) of the same compound?
A: The value was 0.95±0.16.

Q: And the Photostability [1]?
A: The Photostability was “B (20%< degradation<40%)”.

Q: And the Solution stability [2]?
A: The Solution stability was “A (degradation lower than 20%)”.

Q: What does the source list for `COCCOCC(=O)Nc1ccc2c(ccn2Cc2ccc(C(F)(F)F)cc2)c1` [2-(2-methoxyethoxy)-N-(1-(4-(trifluoromethyl)benzyl)-1H-indol-5-yl)acetamide]?
A: Idrug/Ictl at 0 mV (Kv7.2): 0.86±0.01; Idrug/Ictl at -40 mV (Kv7.2): 1.50±0.16; Photostability [1]: A (degradation lower than 20%); Solution stability [2]: A (degradation lower than 20%)

Q: What does the source list for `O=S(=O)(CCC1CCCCC1)Nc1ccc2c(ccn2Cc2ccc(F)cc2)c1` [2-cyclohexyl-N-(1-(4-fluorobenzyl)-1H-indol-5-yl)ethane-1-sulfonamide]?
A: Idrug/Ictl at 0 mV (Kv7.2): 1.18±0.09; Idrug/Ictl at -40 mV (Kv7.2): 1.64±0.10; Photostability [1]: A (degradation lower than 20%); Solution stability [2]: A (degradation lower than 20%)

Q: For `O=C(CC1CCCCC1)Nc1ccc2c(c1)CCN2Cc1ccc(F)cc1` [2-cyclohexyl-N-(1-(4-fluorobenzyl)indolin-5-yl)acetamide], which “Idrug/Ictl at 0 mV” value (Kv7.2) is on record?
A: The value was 1.71±0.12.

Q: And the “Idrug/Ictl at -40 mV” value (Kv7.2)?
A: The value was 2.37±0.40.

Q: And the Photostability [1]?
A: Its Photostability is “A (degradation lower than 20%)”.

Q: What about the Solution stability [2] of the same compound?
A: Its Solution stability is “A (degradation lower than 20%)”.

Q: What does the source list for `CC(C)(C)CC(=O)Nc1ccc2c(ccn2Cc2ccc(C(F)(F)F)cc2)c1` [3,3-dimethyl-N-(1-(4-(trifluoromethyl)benzyl)-1H-indol-5-yl)butanamide]?
A: Idrug/Ictl at 0 mV (Kv7.2): 3.54±0.88; Idrug/Ictl at -40 mV (Kv7.2): 8.23±1.36; Photostability [1]: A (degradation lower than 20%); Solution stability [2]: A (degradation lower than 20%)

Q: For `COCCOCCC(=O)Nc1ccc2c(ccn2Cc2ccc(C(F)(F)F)cc2)c1` [3-(2-methoxyethoxy)-N-(1-(4-(trifluoromethyl)benzyl)-1H-indol-5-yl)propanamide], which “Idrug/Ictl at 0 mV” value (Kv7.2) is on record?
A: The value was 1.34±0.10.

Q: And the “Idrug/Ictl at -40 mV” value (Kv7.2)?
A: Its value is 2.64±0.77.

Q: What about the Photostability [1] of the same compound?
A: Its Photostability is “A (degradation lower than 20%)”.

Q: What about the Solution stability [2] of the same compound?
A: The Solution stability was “A (degradation lower than 20%)”.

Q: For `CC(C)[C@H]1CC[C@H](C)C[C@@H]1OC(=O)Nc1ccc2c(c1)CCN2Cc1ccc(F)cc1` [(1S,2R,5S)-2-isopropyl-5-methylcyclohexyl (1-(4-fluorobenzyl)indolin-5-yl)carbamate], which “Idrug/Ictl at 0 mV” value (Kv7.2) is on record?
A: The value was 0.48±0.07.

Q: What about the “Idrug/Ictl at -40 mV” value (Kv7.2) of the same compound?
A: Its value is 0.80±0.14.

Q: And the Photostability [1]?
A: The Photostability was “B (20%< degradation<40%)”.

Q: And the Solution stability [2]?
A: Its Solution stability is “A (degradation lower than 20%)”.

Q: Which results are given for `O=S(=O)(Nc1ccc2c(c1)CCN2Cc1ccc(C(F)(F)F)cc1C(F)(F)F)C1CCCCC1` [N-(1-(2,4-bis(trifluoromethyl)benzyl)indolin-5-yl)cyclohexanesulfonamide]?
A: Idrug/Ictl at 0 mV (Kv7.2): 1.22±0.11; Idrug/Ictl at -40 mV (Kv7.2): 1.53±0.39; Photostability [1]: C (degradation > 40%); Solution stability [2]: B (20%< degradation<40%)

Q: Which “Idrug/Ictl at 0 mV” value (Kv7.2) does the source give for `O=S(=O)(Nc1ccc2c(c1)CCN2Cc1ccc(F)cc1F)C1CCCCC1` [N-(1-(2,4-difluorobenzyl)indolin-5-yl)cyclohexanesulfonamide] here?
A: The value was 3.79±1.09.

Q: And the “Idrug/Ictl at -40 mV” value (Kv7.2)?
A: The value was 5.82±1.38.

Q: And the Photostability [1]?
A: Its Photostability is “C (degradation > 40%)”.

Q: And the Solution stability [2]?
A: The Solution stability was “C (degradation > 40%)”.

Q: Which “Idrug/Ictl at 0 mV” value (Kv7.2) does the source give for `O=C(Cc1ccc(Cl)cc1)N1CCc2cc(NS(=O)(=O)C3CCCCC3)ccc21` [N-(1-(2-(4-chlorophenyl)acetyl)indolin-5-yl)cyclohexanesulfonamide] here?
A: Its value is 1.18±0.08.

Q: And the “Idrug/Ictl at -40 mV” value (Kv7.2)?
A: Its value is 1.45±0.08.

Q: What about the Photostability [1] of the same compound?
A: The Photostability was “B (20%< degradation<40%)”.

Q: What about the Solution stability [2] of the same compound?
A: Its Solution stability is “A (degradation lower than 20%)”.

Q: With `O=S(=O)(Nc1ccc2c(c1)CCN2Cc1ccc(F)c(F)c1)C1CCCCC1` [N-(1-(3,4-difluorobenzyl)indolin-5-yl)cyclohexanesulfonamide] as the compound, how does the “Idrug/Ictl at 0 mV” value (Kv7.2) read?
A: Its value is 2.11±0.18.

Q: What about the “Idrug/Ictl at -40 mV” value (Kv7.2) of the same compound?
A: Its value is 4.56±1.11.

Q: What about the Photostability [1] of the same compound?
A: The Photostability was “C (degradation > 40%)”.

Q: What about the Solution stability [2] of the same compound?
A: Its Solution stability is “C (degradation > 40%)”.
